Literature values, collected in US20210236427A1, “Development of Lipid Matrix Granules with Incorporation of Polysaccharides for Effective Delivery of an Antimicrobial Essential Oil” (University of Manitoba, priority 2018, published 2021).

Test system: Brachyspira hyodysenteriae
Conditions: in vitro; Vande Maele et al., 2016

CCCCCCCCCCCC(=O)O [lauric acid]
minimum inhibitory concentration (MIC): less than 1.5 mM
